A short description of this data set: collision cross section in nitrogen (drift tube, single-field); higher = larger gas-phase ion size.
Where [1] appears, read: ion type: [M+H], ion source: ESI, ion mode: Positive.
[2] abbreviates: ion type: [M+Na], ion source: ESI, ion mode: Positive.
Setting [3] is: ion type: [M-H], ion source: ESI, ion mode: Negative.
Setting [4] is: ion type: [M+H], ion source: APCI, ion mode: Positive.
The mark [5] stands for this setting: ion type: [M+], ion source: APCI, ion mode: Positive.
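Also: chemical standards at 10 µM analysed by drift tube IMS-QTOF MS in about 3.95 torr nitrogen, mean of duplicate injections differing ≤1%, mass error below 10 ppm.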

On to `CC1=NN(c2ccc(C)cc2)C(=O)C1` [3-Methyl-1-p-tolyl-5-pyrazolone], for which the “collision cross section in nitrogen” value reads like this: under setting [1], 142.9 Å²; under setting [2], 156.9 Å²; under setting [3], 144.4 Å².

As to `Cc1cc(N)n(-c2ccccc2)n1` [3-Methyl-1-phenyl-1H-pyrazol-5-amine], the “collision cross section in nitrogen” value is 136.3 Å² under setting [4], 136.5 Å² under setting [1] and 136.1 Å² under setting [3].

`CC1COc2ccccc2N1` (stereo unspecified) [3-Methyl-3,4-dihydro-2H-1,4-benzoxazine]: the “collision cross section in nitrogen” value came out at 130.4 Å² under setting [4] and 131.2 Å² under setting [1].

For `CC1=NNC(=O)C1` [3-Methyl-5-pyrazolone], the “collision cross section in nitrogen” value came to 119.1 Å² under setting [1] and 117.9 Å² under setting [3].

As for `Cc1cccc(Nc2ccccc2)c1` [3-Methyl-N-phenylaniline], the “collision cross section in nitrogen” value reads like this: under setting [4], 143.2 Å²; under setting [1], 143.6 Å²; under setting [5], 139.3 Å².

Turning to `Cc1c[nH]c2ccccc12` [3-Methylindole], under setting [3], the “collision cross section in nitrogen” value is 125.2 Å².

Turning to `O=C(O)c1cccc([N+](=O)[O-])c1` [3-Nitrobenzoic acid], the “collision cross section in nitrogen” value under setting [3] is recorded as 131.2 Å².

As for `CC(=O)CC(=O)Nc1ccc2[nH]c(=O)[nH]c2c1` [3-Oxo-N-(2-oxo-2,3-dihydro-1H-benzimidazol-5-yl)butanamide], the “collision cross section in nitrogen” value under setting [3] came out at 154.4 Å².

For the compound `O=C(O)c1cccc(Oc2ccccc2)c1` [3-Phenoxybenzoic acid], under setting [3], the “collision cross section in nitrogen” value is 155.6 Å².

Take `Oc1cccc(-c2ccccc2)c1` [3-Phenylphenol]: under setting [3], the “collision cross section in nitrogen” value is on record as 140 Å².

With `Nc1cccnc1` [3-Pyridinamine], the “collision cross section in nitrogen” value runs as follows: under setting [4], 115 Å²; under setting [1], 115.2 Å².

Consider `Oc1cccnc1` [3-Pyridinol], for which the “collision cross section in nitrogen” value under setting [1] came out at 117.3 Å² and the “collision cross section in nitrogen” value under setting [3] amounted to 114.6 Å².

Regarding `CCCCCCCCCCCSCC(=O)O` [3-Thiatetradecanoic acid], the “collision cross section in nitrogen” value under setting [3] stood at 162.7 Å².

In the case of `CC(C)(C)c1cc(CCC(=O)NN)cc(C(C)(C)C)c1O` [3-[3,5-DI(tert-butyl)-4-hydroxyphenyl]propanohydrazide], the “collision cross section in nitrogen” value under setting [2] is 179.3 Å² and the “collision cross section in nitrogen” value under setting [3] is given as 174.5 Å².

For the compound `CCN(CCC#N)c1ccccc1` [3-[Ethyl(phenyl)amino]propanenitrile], the “collision cross section in nitrogen” value runs as follows: under setting [4], 138.5 Å²; under setting [1], 139.3 Å².

As for `CC(C)(C)c1cccc(O)c1` [3-tert-Butylphenol], the “collision cross section in nitrogen” value under setting [3] stood at 136.9 Å².

In the case of `CN(C)CCCNCCC#N` [3-{[3-(Dimethylamino)propyl]amino}propanenitrile], the “collision cross section in nitrogen” value by setting is: under setting [4], 130.8 Å²; under setting [1], 131.9 Å².

For `CC(=O)Nc1ccc(C(=O)CCl)cc1` [4'-(Chloroacetyl)acetanilide], the “collision cross section in nitrogen” value under setting [3] was 144.9 Å².

With `COc1cc(NC(=O)CC(C)=O)c(OC)cc1Cl` [4'-Chloro-2',5'-dimethoxyacetoacetanilide], the “collision cross section in nitrogen” value under setting [1] turned out to be 160.8 Å², the “collision cross section in nitrogen” value under setting [2] was 168.5 Å², the “collision cross section in nitrogen” value under setting [5] amounted to 156.7 Å² and the “collision cross section in nitrogen” value under setting [3] worked out at 161.1 Å².

For `CC(=O)CC(=O)Nc1ccc(Cl)cc1` [4'-Chloroacetoacetanilide], under setting [3], the “collision cross section in nitrogen” value amounted to 143.8 Å².

With `Nc1ccc(-c2ccc(F)cc2)cc1` [4'-Fluoro-4-aminodiphenyl], the “collision cross section in nitrogen” value is on record as 156.4 Å² under setting [1] and 136.9 Å² under setting [5].

As to `CC(c1ccc(O)cc1)(c1ccc(O)cc1)c1ccc(O)cc1` [4,4',4''-Ethane-1,1,1-triyltriphenol], under setting [3], the “collision cross section in nitrogen” value was 184.3 Å².

Take `CC(c1ccccc1)(c1ccc(O)cc1)c1ccc(O)cc1` [4,4'-(1-Phenylethylidene)bisphenol]: the “collision cross section in nitrogen” value under setting [3] stood at 180 Å².

Regarding `N#Cc1ccc(C(c2ccc(C#N)cc2)n2cncn2)cc1` [4,4'-(1H-1,2,4-Triazol-1-ylmethylene)dibenzonitrile], the “collision cross section in nitrogen” value under setting [3] stood at 166.5 Å².

For the compound `CC(C)CC(C)(c1ccc(O)cc1)c1ccc(O)cc1` [4,4'-(4-Methylpentane-2,2-diyl)diphenol], the “collision cross section in nitrogen” value under setting [3] is 175.3 Å².

`Oc1ccc(C2(c3ccc(O)cc3)c3ccccc3-c3ccccc32)cc1` [4,4'-(9H-Fluorene-9,9-diyl)diphenol]: under setting [3], the “collision cross section in nitrogen” value is recorded as 194.8 Å².

Take `C1CN(CCOCCN2CCOCC2)CCO1` [4,4'-(Oxydiethylene)bis(morpholine)]: the “collision cross section in nitrogen” value under setting [4] was 151.8 Å², the “collision cross section in nitrogen” value under setting [1] amounted to 152.2 Å² and the “collision cross section in nitrogen” value under setting [2] is listed as 156.9 Å².

Regarding `Nc1ccc(Cc2ccc(N)cc2)cc1` [4,4'-Diaminobiphenyl methane], the “collision cross section in nitrogen” value runs as follows: under setting [4], 163.3 Å²; under setting [1], 163.1 Å².

For `CCCCCCCCc1ccc(Nc2ccc(CCCCCCCC)cc2)cc1` [4,4'-Dioctyldiphenylamine], the “collision cross section in nitrogen” value under setting [4] was found to be 218.8 Å², the “collision cross section in nitrogen” value under setting [1] came out at 219.9 Å², the “collision cross section in nitrogen” value under setting [5] is 219.4 Å² and the “collision cross section in nitrogen” value under setting [3] worked out at 221 Å².

In the case of `CC(C)(C)c1cc(Cc2cc(C(C)(C)C)c(O)c(C(C)(C)C)c2)cc(C(C)(C)C)c1O` [4,4'-Methylenebis(2,6-di-t-butylphenol)], the “collision cross section in nitrogen” value under setting [3] came to 221.2 Å².

With `c1cc(N(CC2CO2)CC2CO2)ccc1Cc1ccc(N(CC2CO2)CC2CO2)cc1` (stereo unspecified) [4,4'-Methylenebis(N,N-diglycidylaniline)], the “collision cross section in nitrogen” value is, setting by setting: under setting [4], 215.7 Å²; under setting [1], 215.2 Å²; under setting [2], 199.7 Å².

`CN(C)c1ccc(Cc2ccc(N(C)C)cc2)cc1` [4,4'-Methylenebis(N,N-dimethylaniline)]: the “collision cross section in nitrogen” value under setting [4] came to 175.3 Å² and the “collision cross section in nitrogen” value under setting [1] amounted to 174.8 Å².

For `Cc1cc(Cc2ccc(N)c(C)c2)ccc1N` [4,4'-Methylenebis(o-toluidine)], the “collision cross section in nitrogen” value is, setting by setting: under setting [4], 179.1 Å²; under setting [1], 171.2 Å².

Turning to `Nc1ccc(Oc2ccc(N)cc2)cc1` [4,4'-Oxydianiline], the “collision cross section in nitrogen” value is 167.4 Å² under setting [4], 160.7 Å² under setting [1] and 146.6 Å² under setting [5].

Consider `c1cc(CCCc2ccncc2)ccn1` [4,4'-Propane-1,3-diyldipyridine], for which the “collision cross section in nitrogen” value reads like this: under setting [4], 146.1 Å²; under setting [1], 145.7 Å².

As to `Cc1cc(C(C)(C)c2cc(C)c(O)c(C)c2)cc(C)c1O` [4,4'-Propane-2,2-diylbis(2,6-dimethylphenol)], the “collision cross section in nitrogen” value under setting [3] is on record as 182.9 Å².

Turning to `C=CCc1cc(S(=O)(=O)c2ccc(O)c(CC=C)c2)ccc1O` [4,4'-Sulfonylbis[2-(prop-2-en-1-yl)phenol]], the “collision cross section in nitrogen” value under setting [1] stood at 182.5 Å² and the “collision cross section in nitrogen” value under setting [2] is 197.2 Å².

For `Nc1ccc(Sc2ccc(N)cc2)cc1` [4,4'-Thiodianiline], the “collision cross section in nitrogen” value is 164.9 Å² under setting [4], 164.4 Å² under setting [1] and 148.1 Å² under setting [5].

In the case of `CC(CCC(=O)O)(c1ccc(O)cc1)c1ccc(O)cc1` [4,4-Bis(4-hydroxyphenyl)valeric acid], under setting [3], the “collision cross section in nitrogen” value was 177.5 Å².

As for `Nc1ccc(-c2ccc(N)cc2)cc1` [4,4′-Diamino-1,1′-biphenyl], the “collision cross section in nitrogen” value was 156.9 Å² under setting [4], 157 Å² under setting [1] and 139.4 Å² under setting [5].

As to `CC(C)(C)CC(C)(C)c1ccc(O)cc1` [4-(1,1,3,3-Tetramethylbutyl)phenol], the “collision cross section in nitrogen” value under setting [3] is listed as 157.1 Å².

For the compound `CC(C)(C)c1ccc(O)cc1` [4-(1,1-Dimethylethyl)phenol], the “collision cross section in nitrogen” value under setting [3] is 139.5 Å².

As to `CCOc1cc([N+](=O)[O-])c(OCC)cc1N1CCOCC1` [4-(2,5-Diethoxy-4-nitrophenyl)morpholine], the “collision cross section in nitrogen” value is, setting by setting: under setting [4], 173.1 Å²; under setting [1], 173.2 Å².

In the case of `CCC(C)(C)c1ccc(O)cc1` [4-(2-Methylbutan-2-yl)phenol], the “collision cross section in nitrogen” value under setting [3] turned out to be 143.8 Å².

In the case of `CC1=NN(c2ccc(C(=O)O)cc2)C(=O)C1` [4-(3-Methyl-5-oxo-4,5-dihydro-1H-pyrazol-1-yl)benzoic acid], the “collision cross section in nitrogen” value is, setting by setting: under setting [1], 151.6 Å²; under setting [3], 146.2 Å².

Turning to `c1ccc(CCCc2ccncc2)cc1` [4-(3-Phenylpropyl)pyridine], the “collision cross section in nitrogen” value by setting is: under setting [4], 145.9 Å²; under setting [1], 146.1 Å².

Turning to `CC(C)Oc1ccc(S(=O)(=O)c2ccc(O)cc2)cc1` [4-((4-Isopropoxyphenyl)sulfonyl)phenol], the “collision cross section in nitrogen” value runs as follows: under setting [4], 180.9 Å²; under setting [1], 171.8 Å²; under setting [2], 187.9 Å²; under setting [3], 174.8 Å².

Regarding `CCN(CC)c1ccc(C=O)cc1` [4-(Diethylamino)benzaldehyde], the “collision cross section in nitrogen” value by setting is: under setting [4], 139.4 Å²; under setting [1], 140.3 Å².

Turning to `CCN(CC)c1ccc(C=O)c(O)c1` [4-(Diethylamino)salicylaldehyde], the “collision cross section in nitrogen” value is, setting by setting: under setting [4], 142.6 Å²; under setting [1], 143.7 Å²; under setting [3], 147 Å².

For `c1cc(N(CC2CO2)CC2CO2)ccc1OCC1CO1` (stereo unspecified) [4-(Diglycidylamino)phenyl glycidyl ether], the “collision cross section in nitrogen” value reads like this: under setting [4], 167.5 Å²; under setting [1], 167 Å²; under setting [2], 161.7 Å².

Values taken from the supplement of paper PMC12317010.
